Biological target: DNA dC->dU-editing enzyme APOBEC-3G (Homo sapiens, UniProt Q9HC16)
Test: APOBEC3G deaminase inhibitors, SAR follow-up, biochemical, fluorescence, single-stranded DNA substrate (AID 602136)
Conditions: 25 °C

Sequence of DNA dC->dU-editing enzyme APOBEC-3G (Q9HC16 whole entry): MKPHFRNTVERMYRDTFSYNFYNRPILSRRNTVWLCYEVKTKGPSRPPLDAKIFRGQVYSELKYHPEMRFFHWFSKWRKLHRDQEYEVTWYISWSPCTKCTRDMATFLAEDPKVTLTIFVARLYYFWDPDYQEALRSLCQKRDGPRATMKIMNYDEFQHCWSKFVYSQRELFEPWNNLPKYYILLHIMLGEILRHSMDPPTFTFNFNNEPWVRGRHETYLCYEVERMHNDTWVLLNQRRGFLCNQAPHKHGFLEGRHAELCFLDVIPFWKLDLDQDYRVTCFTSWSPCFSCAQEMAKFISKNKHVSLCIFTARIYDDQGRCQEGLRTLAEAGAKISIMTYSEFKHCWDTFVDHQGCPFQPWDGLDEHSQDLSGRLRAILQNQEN

SMILES | IC50
CCN1C(SCC(=O)NCc2ccco2)=NNC1=C1C=CC=CC1=O | > 99 µM
CC1(C)Oc2ccc3ccc(=O)oc3c2C(CN=O)=C1Cl [9-chloro-2-keto-8,8-dimethyl-pyrano[2,3-f]chromene-10-carbaldehyde oxime] | > 99 µM

Source: BindingDB's records for doi:10.7270/Q25H7DV5 (Burnham Center For Chemical Genomics, 2011)
